{"source": "patent US20250075056A1", "about": "“IMIDAZOLYSIS OF POLYESTERS AND POLYURETHANES” (The Board of Trustees of The University of Alabama, priority 2023, published 2025)", "key": {"[1]": {"assay": "Solubility of TBIs in common solvents", "assay_type": "physicochemical"}, "[2]": {"settings": "imidazole reagent, literature refs 58-60, cited from earlier work"}, "[3]": {"settings": "organic solvent or mixture, solvent Ethanol, read-out: Solubility in Ethanol"}, "[4]": {"settings": "solvent DI Water, read-out: Solubility in DI Water"}}, "note": "Read-outs that look alike come from different tables or passages of the source."}
{"compound": "Cc1cn(C(=O)c2ccc(C(=O)n3cnc(C)c3)cc2)cn1", "note": "[4b]", "values": [{"measurement": "solubility", "setting": "[1]; [3]", "value": "> 1000", "unit": "µg/mL"}, {"measurement": "solubility", "setting": "[1]; [4]", "value": "> 1000", "unit": "µg/mL"}]}
{"compound": "O=C(c1ccc(C(=O)n2ccnc2)cc1)n1ccnc1", "note": "[1b, 1,1′-(1,4-Phenylene)bis[1-(1H-imidazol-1-yl)methanone]]", "values": [{"measurement": "Solubility on contact with H2O", "setting": "[1]; DI H2O", "value": "solubilize"}, {"measurement": "solubility", "setting": "[1]; [3]", "value": "> 1000", "unit": "µg/mL"}, {"measurement": "solubility", "setting": "[1]; [4]", "value": "> 1000", "unit": "µg/mL"}]}
{"compound": "CCc1nc(C)c[nH]1", "note": "[7a, 2-Ethyl-4-methyl imidazole]", "values": [{"measurement": "pKa", "setting": "[2]", "value": 8.68}]}
{"compound": "CC(C)c1nccn1C(=O)c1ccc(C(=O)n2ccnc2C(C)C)cc1", "note": "[5b]", "values": [{"measurement": "solubility", "setting": "[1]; [3]", "value": "< 1000", "unit": "µg/mL"}, {"measurement": "solubility", "setting": "[1]; [4]", "value": "< 1000", "unit": "µg/mL"}]}
{"compound": "Cc1nc(C)c(C)[nH]1", "note": "[6a, 2,4,5-Trimethyl imidazole]", "values": [{"measurement": "pKa", "setting": "[2]", "value": 8.92}]}
{"compound": "c1ccc(-c2ncc[nH]2)cc1", "note": "[8a, 2-Phenyl imidazole]", "values": [{"measurement": "pKa", "setting": "[2]", "value": 6.44}]}
{"compound": "Cc1ncc[nH]1", "note": "[2a, 2-Methyl imidazole]", "values": [{"measurement": "pKa", "setting": "[2]", "value": "7.85-8.10"}, {"measurement": "pKa", "setting": "[2]; listed as 2-methylimidazole", "value": 8.1}]}
{"compound": "CCc1ncc[nH]1", "note": "[3a, 2-Ethyl imidazole]", "values": [{"measurement": "pKa", "setting": "[2]", "value": "7.99-8"}]}
{"compound": "CC(C)c1ncc[nH]1", "note": "[5a, 2-Isopropyl imidazole]", "values": [{"measurement": "pKa", "setting": "[2]", "value": 7.97}]}
{"compound": "Cc1c[nH]cn1", "note": "[4a, 4-Methyl imidazole]", "values": [{"measurement": "pKa", "setting": "[2]", "value": "7.69-7.80"}]}
{"compound": "O=C(c1ccc(C(=O)n2ccnc2-c2ccccc2)cc1)n1ccnc1-c1ccccc1", "note": "[8b]", "values": [{"measurement": "Solubility in typical aromatic organic solvents", "setting": "[1]; e.g., toluene, xylene", "value": "moderately soluble"}, {"measurement": "solubility", "setting": "[1]; [3]", "value": "< 1000", "unit": "µg/mL"}, {"measurement": "solubility", "setting": "[1]; [4]", "value": "< 1000", "unit": "µg/mL"}]}
{"compound": "Imidazole [1a]", "values": [{"measurement": "pKa", "setting": "[2]", "value": "~7"}]}
{"compound": "CCc1nccn1C(=O)c1ccc(C(=O)n2ccnc2CC)cc1", "note": "[3b]", "values": [{"measurement": "solubility", "setting": "[1]; [3]", "value": "> 1000", "unit": "µg/mL"}, {"measurement": "solubility", "setting": "[1]; [4]", "value": "> 1000", "unit": "µg/mL"}]}
{"compound": "Cc1nc(C)n(C(=O)c2ccc(C(=O)n3c(C)nc(C)c3C)cc2)c1C", "note": "[6b]", "values": [{"measurement": "solubility", "setting": "[1]; [3]", "value": "> 1000", "unit": "µg/mL"}, {"measurement": "solubility", "setting": "[1]; [4]", "value": "> 1000", "unit": "µg/mL"}]}
{"compound": "CCc1nc(C)cn1C(=O)c1ccc(C(=O)n2cc(C)nc2CC)cc1", "note": "[7b]", "values": [{"measurement": "solubility", "setting": "[1]; [3]", "value": "< 1000", "unit": "µg/mL"}, {"measurement": "solubility", "setting": "[1]; [4]", "value": "> 1000", "unit": "µg/mL"}]}
{"compound": "Cc1nccn1C(=O)c1ccc(C(=O)n2ccnc2C)cc1", "note": "[2b]", "values": [{"measurement": "solubility", "setting": "[1]; [3]", "value": "> 1000", "unit": "µg/mL"}, {"measurement": "solubility", "setting": "[1]; [4]", "value": "> 1000", "unit": "µg/mL"}]}
